{
  "source": "patent US5238689A",
  "about": "“Use of ruthenium red as immunosuppressive agents” (Procept, Inc., priority 1992, dated 1993)",
  "key": {"[1]": {"system": "transfected Jurkat T cells", "assay": "Calcium influx into activated human T cells (Fluo-3AM)", "format": "cell-based", "method": "To uncover the mode of action of Ruthenium Red, additional experiments were performed. Because it is known that this compound effects Ca^2+ levels in cells, we examined whether Ruthenium Red prevents the rise in intracellular Ca^2+ that accompanies T cell activation. The Ca^2+ -sensitive dye, Fluo-3AM (Molecular Probes, Inc., Eugene, Oreg.), can be used to detect intracellular Ca^2+. For these studies, transfected Jurkat T cells were incubated with Fluo-3AM (1 μM) for one hour at room temperature. The cells were then washed three times and incubated in 1 ml. volumes (5×10^5 cells) with various agents to trigger T cell activation and thus Ca^2+ uptake. Ruthenium Red was added at a concentration of 1 μg/ml (1.27 μM)."}, "[2]": {"system": "Lewis lung carcinoma", "conditions": "mice treated with the dye; cited from earlier work"}, "[3]": {"system": "specific antibodies to cytochrome c", "conditions": "4 mg/kg i.p. daily, 2 days before and 12 days after immunization; day 23"}, "[4]": {"system": "mitochondria of rat liver cells", "conditions": "cited from earlier work"}, "[5]": {"system": "human peripheral blood lymphocytes (PBL's)", "conditions": "for 3H-thymidine uptake / % Inhibition: Ruthenium Red 0.2 μg/ml, 3 days", "method": "For these studies, human peripheral blood lymphocytes (PBL's) were incubated in vitro with varying concentrations of IL-2 and in the presence or absence of Ruthenium Red (0.2 μg/ml). After 3 days of culture, ^3 H-thymidine was added for 16 hr, cells were harvested, and the filters counted."}, "[6]": {"system": "human T cell (PBL) proliferation", "conditions": "for % Inhibition: mean of 5 separate experiments"}, "[7]": {"system": "specific antibody to cytochrome c", "method": "The remaining mice in this study continued on their assigned treatment and were bled on day 23, as in the original pilot study, and sera were tested for specific antibodies in the ELISA. The data has been expressed as the mean of the endpoint dilution."}, "[8]": {"system": "T cells", "conditions": "mean of 4 determinations", "method": "Alloreactivity was measured by stimulating T cells from one donor with inactivated lymphocytes from a second donor. The inhibition values represent the means of 4 separate determinations."}, "[9]": {"system": "smooth muscle plasma membrane of pig stomach cells", "conditions": "cited from earlier work"}, "[10]": {"system": "T cell responses to cytochrome c", "method": "For these studies, B10.A mice were treated with Ruthenium RED as before and immunized with cytochrome c. On day 7 after challenge with antigen, draining lymph nodes were removed and single cell suspensions of lymphocytes were prepared. The lymphocytes were counted to estimate overall yields and were cultured in vitro with antigen (100 μg/ml) for three days prior to addition of tritiated thymidine to quantitate proliferation."}, "[11]": {"system": "T cells activated with HSV-1", "conditions": "1 μg/ml", "method": "In another study, T cells were activated with HSV-1 as described before and the Ruthenium Red (1 μg/ml) was added either at the start of culture (time 0) or after various delays."}},
  "note": "“And” between values parts separate entries of the source, which are not always exact repeats. Equal entries are not always repeated. Where two headings read alike, the source gives them in different places.",
  "data": [
    {"smiles": "CNc1ccc2oc(C[C@H]3O[C@@]4(CC[C@H]3C)O[C@H]([C@H](C)C(=O)c3ccc[nH]3)[C@H](C)C[C@H]4C)nc2c1C(=O)O", "note": "[Calcium ionophore, reference compound]", "values": [
      {"measurement": "% Fluorescent cells", "setting": "[1]; Calcium ionophore, without Ruthenium Red", "result": 84.6, "unit": "%"}
    ]},
    {"smiles": "N.N.N.N.N.N.N.N.N.N.N.N.N.N.[Cl-].[Cl-].[Cl-].[Cl-].[Cl-].[Cl-].[O-2].[O-2].[Ru+3].[Ru+3].[Ru+4]", "note": "[Ruthenium Red]", "values": [
      {"measurement": "anti-tumor properties, growth of Lewis lung carcinoma", "setting": "[2]", "result": "growth inhibition of Lewis lung carcinoma in mice"},
      {"measurement": "reduction in antibody levels compared to control mice who received water", "setting": "[3]", "result": 70, "unit": "%"},
      {"measurement": "effect on calcium ion transport", "setting": "[4]", "result": "affect calcium ion transport"},
      {"measurement": "percentage of cells staining positively with the dye (intracellular Ca2+)", "setting": "[1]; 1 μg/ml (1.27 μM)", "result": "major reduction in the percentage of cells staining positively with the dye"},
      {"measurement": "% Fluorescent cells", "setting": "[1]; Activation (anti-CD2), Ruthenium Red 1 μg/ml (1.27 μM)", "result": 17.2, "unit": "%"},
      {"measurement": "3H-thymidine uptake", "setting": "[5]; IL-2 0.01 U/ml", "result": "1,154 cpm"},
      {"measurement": "% Inhibition", "setting": "[5]; IL-2 0.01 U/ml", "result": 80, "unit": "%"},
      {"measurement": "3H-thymidine uptake", "setting": "[5]; IL-2 1 U/ml", "result": "2,805 cpm"},
      {"measurement": "% Inhibition", "setting": "[5]; IL-2 1 U/ml", "result": 92, "unit": "%"},
      {"measurement": "3H-thymidine uptake", "setting": "[5]; IL-2 100 U/ml", "result": "3,839 cpm"},
      {"measurement": "% Inhibition", "setting": "[5]; IL-2 100 U/ml", "result": 88, "unit": "%"},
      {"measurement": "proliferative response induced by IL-2 alone", "setting": "[5]; PBL's", "result": "can be inhibited by this compound"},
      {"measurement": "% Inhibition", "setting": "[6]; 0.01 μg/ml (0.01 μM)", "result": 17, "unit": "%"},
      {"measurement": "% Inhibition", "setting": "[6]; 0.1 μg/ml (0.13 μM)", "result": 31, "unit": "%"},
      {"measurement": "% Inhibition", "setting": "[6]; 0.2 μg/ml (0.25 μM)", "result": 60, "unit": "%"},
      {"measurement": "% Inhibition", "setting": "[6]; 1.0 μg/ml (1.27 μM)", "result": 89, "unit": "%"},
      {"measurement": "% Inhibition", "setting": "[6]; 2.5 μg/ml (3.18 μM), 3.18 µM", "result": "~90% and 96%"},
      {"measurement": "IC50", "setting": "[6]; read-out: IC50, inhibition of T cell proliferation, antigen-stimulated human PBL", "result": "~0.2", "unit": "µM"},
      {"measurement": "High Responders", "setting": "[7]; antibody titer greater than 1:5,120, day 23", "result": "2/6"},
      {"measurement": "mice with titers greater than 1:5000", "setting": "[7]; day 23", "result": "2 of the 6"},
      {"measurement": "Mean Titer", "setting": "[7]; mean of the endpoint dilution, day 23", "result": "18,613 ± 13,020"},
      {"measurement": "fraction of mice with a greatly reduced response to antigen", "setting": "[7]; pilot study, proliferative data and antibody titers together", "result": "two thirds"},
      {"measurement": "% Inhibition of alloreactivity", "setting": "[8]; 0.1 μg/ml (0.13 μM)", "result": 69, "unit": "%"},
      {"measurement": "% Inhibition of alloreactivity", "setting": "[8]; 0.2 μg/ml (0.25 μM)", "result": 77, "unit": "%"},
      {"measurement": "% Inhibition of alloreactivity", "setting": "[8]; 1.0 μg/ml (1.27 μM)", "result": 85, "unit": "%"},
      {"measurement": "% Inhibition of alloreactivity", "setting": "[8]; 2.5 μg/ml (3.18 μM)", "result": 92, "unit": "%"},
      {"measurement": "Ca2+ efflux", "setting": "[9]", "result": "inhibit Ca^2+ efflux"},
      {"measurement": "effect on calcium ion transport", "setting": "[9]; smooth muscle plasma membrane of pig stomach cells", "result": "affect calcium ion transport"},
      {"measurement": "Cell Yield (draining lymph nodes)", "setting": "[10]; mouse 14, day 7", "result": "0.26 × 10^6"},
      {"measurement": "Cell Yield (draining lymph nodes)", "setting": "[10]; mouse 16, day 7", "result": "0.81 × 10^6"},
      {"measurement": "Cell Yield (draining lymph nodes)", "setting": "[10]; mouse 17, day 7", "result": "16 × 10^6"},
      {"measurement": "Specific proliferation", "setting": "[10]; mouse 17, day 7, antigen 100 μg/ml, three days in vitro", "result": "22,236 cpm"},
      {"measurement": "response to cytochrome c", "setting": "[10]; third mouse", "result": "responded normally to cytochrome c"},
      {"measurement": "enlargement of lymph nodes following immunization", "setting": "[10]; two of the three mice", "result": "no enlargement of lymph nodes following immunization"},
      {"measurement": "latest time of addition after triggering with antigen still producing maximal inhibition", "setting": "[11]", "result": "≤ 20", "unit": "h"},
      {"measurement": "% Inhibition", "setting": "[11]; time of addition 0 hr", "result": 95, "unit": "%"},
      {"measurement": "% Inhibition", "setting": "[11]; time of addition 1 hr", "result": 97, "unit": "%"},
      {"measurement": "% Inhibition", "setting": "[11]; time of addition 2 hr", "result": 96, "unit": "%"},
      {"measurement": "% Inhibition", "setting": "[11]; time of addition 4 hr", "result": 92, "unit": "%"},
      {"measurement": "% Inhibition", "setting": "[11]; time of addition 20 hr", "result": 86, "unit": "%"},
      {"measurement": "% Inhibition", "setting": "[11]; time of addition 33 hr", "result": 58, "unit": "%"}
    ]}
  ]
}
